PMC9684079, “Pharmacological targeting of glutamatergic neurons within the brainstem for weight reduction” (Nature Metabolism, 2022)

Assays:
Assay in all cases: biochemical
Parameters in all cases: Cerep/Eurofins selectivity panel, receptors, channels and transporters, per cent inhibition at 10 uM
Details in all cases: read-out: % Inhibition
GABAB1B = target: T1, GABAB1B (Homo sapiens, UniProt Q9UBS5)
T1 construct: gene GABBR1; isoform 1B

Cholecystokinin CCK2 = target: T2, Cholecystokinin CCK2 (Homo sapiens, UniProt P32239)
T2 construct: gene CCKBR

Adenosine A1 = target: T3, Adenosine A1 (Homo sapiens, UniProt P30542)
T3 construct: gene ADORA1

Dopamine D1 = target: T4, Dopamine D1 (Homo sapiens, UniProt P21728)
T4 construct: gene DRD1

Histamine H1 = target: T5, Histamine H1 (Homo sapiens, UniProt P35367)
T5 construct: gene HRH1

APJ = target: T6, APJ (Homo sapiens, UniProt P35414)
T6 construct: gene APLNR

[1] = target: T7, Transporter, Dopamine (DAT) (Homo sapiens, UniProt Q01959)
T7 construct: gene SLC6A3

Opiate δ1 (OP1, DOP) = target: T8, Opiate δ1 (OP1, DOP) (Homo sapiens, UniProt P41143)
T8 construct: gene OPRD1

Dopamine D3 = target: T9, Dopamine D3 (Homo sapiens, UniProt P35462)
T9 construct: gene DRD3

Estrogen ERβ = target: T10, Estrogen ERβ (Homo sapiens, UniProt Q92731)
T10 construct: gene ESR2

Cannabinoid CB1 = target: T11, Cannabinoid CB1 (Homo sapiens, UniProt P21554)
T11 construct: gene CNR1

Cholecystokinin CCK1 = target: T12, Cholecystokinin CCK1 (Homo sapiens, UniProt P32238)
T12 construct: gene CCKAR

Angiotensin AT1 = target: T13, Angiotensin AT1 (Homo sapiens, UniProt P30556)
T13 construct: gene AGTR1

Adrenergic β3 = target: T14, Adrenergic β3 (Homo sapiens, UniProt P13945)
T14 construct: gene ADRB3

AdenosineA2B = target: T15, AdenosineA2B (Homo sapiens, UniProt P29275)
T15 construct: gene ADORA2B

Tachykinin NK3 = target: T16, Tachykinin NK3 (Homo sapiens, UniProt P29371)
T16 construct: gene TACR3

Vasopressin V2 = target: T17, Vasopressin V2 (Homo sapiens, UniProt P30518)
T17 construct: gene AVPR2

Muscarinic M4 = target: T18, Muscarinic M4 (Homo sapiens, UniProt P08173)
T18 construct: gene CHRM4

Adenosine A2A = target: T19, Adenosine A2A (Homo sapiens, UniProt P29274)
T19 construct: gene ADORA2A

[2] = target: T20, Transporter, Serotonin (SERT) (Homo sapiens, UniProt P31645)
T20 construct: gene SLC6A4

Histamine H3 = target: T21, Histamine H3 (Homo sapiens, UniProt Q9Y5N1)
T21 construct: gene HRH3

Progesterone PR-B = target: T22, Progesterone PR-B (Homo sapiens, UniProt P06401)
T22 construct: gene PGR; PR-B isoform

[3] = target: T23, Serotonin (5-Hydroxytryptamine) 5-HT3 (Homo sapiens, UniProt P46098)
T23 construct: gene HTR3A

Dopamine D2L = target: T24, Dopamine D2L (Homo sapiens, UniProt P14416)
T24 construct: gene DRD2; long isoform D2L

Muscarinic M1 = target: T25, Muscarinic M1 (Homo sapiens, UniProt P11229)
T25 construct: gene CHRM1

T20 sequence (P31645 whole entry): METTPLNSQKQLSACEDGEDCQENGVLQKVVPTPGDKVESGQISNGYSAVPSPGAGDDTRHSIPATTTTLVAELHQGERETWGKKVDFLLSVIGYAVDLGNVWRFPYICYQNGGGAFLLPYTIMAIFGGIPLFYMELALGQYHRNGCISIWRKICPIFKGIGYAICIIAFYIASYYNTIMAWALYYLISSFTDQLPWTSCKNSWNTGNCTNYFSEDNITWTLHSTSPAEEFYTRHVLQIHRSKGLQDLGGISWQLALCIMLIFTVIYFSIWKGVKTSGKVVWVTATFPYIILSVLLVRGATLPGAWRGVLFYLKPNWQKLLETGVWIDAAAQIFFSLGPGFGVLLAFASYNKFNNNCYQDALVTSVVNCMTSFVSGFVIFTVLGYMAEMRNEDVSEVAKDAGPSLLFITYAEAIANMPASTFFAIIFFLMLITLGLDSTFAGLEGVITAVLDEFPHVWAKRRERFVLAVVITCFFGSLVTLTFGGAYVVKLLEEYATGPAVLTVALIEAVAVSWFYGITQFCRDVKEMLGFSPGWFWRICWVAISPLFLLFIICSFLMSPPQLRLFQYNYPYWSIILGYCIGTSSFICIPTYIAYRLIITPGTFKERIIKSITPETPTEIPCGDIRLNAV
T10 sequence (Q92731 whole entry): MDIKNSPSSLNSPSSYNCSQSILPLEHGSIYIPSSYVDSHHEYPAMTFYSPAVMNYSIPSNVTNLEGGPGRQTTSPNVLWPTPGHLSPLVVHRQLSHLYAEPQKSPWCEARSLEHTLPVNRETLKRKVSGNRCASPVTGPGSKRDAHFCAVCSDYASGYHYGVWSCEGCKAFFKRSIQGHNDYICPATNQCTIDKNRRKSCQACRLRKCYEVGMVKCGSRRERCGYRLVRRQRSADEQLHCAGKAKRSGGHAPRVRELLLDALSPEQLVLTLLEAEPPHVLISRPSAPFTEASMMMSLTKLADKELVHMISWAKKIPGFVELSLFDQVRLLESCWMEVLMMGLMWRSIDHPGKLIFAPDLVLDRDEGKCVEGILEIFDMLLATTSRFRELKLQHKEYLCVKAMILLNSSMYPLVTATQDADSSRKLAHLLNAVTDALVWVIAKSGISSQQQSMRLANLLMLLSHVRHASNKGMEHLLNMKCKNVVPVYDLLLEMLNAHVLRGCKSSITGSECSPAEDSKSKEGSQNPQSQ
T1 sequence (Q9UBS5 whole entry, canonical isoform): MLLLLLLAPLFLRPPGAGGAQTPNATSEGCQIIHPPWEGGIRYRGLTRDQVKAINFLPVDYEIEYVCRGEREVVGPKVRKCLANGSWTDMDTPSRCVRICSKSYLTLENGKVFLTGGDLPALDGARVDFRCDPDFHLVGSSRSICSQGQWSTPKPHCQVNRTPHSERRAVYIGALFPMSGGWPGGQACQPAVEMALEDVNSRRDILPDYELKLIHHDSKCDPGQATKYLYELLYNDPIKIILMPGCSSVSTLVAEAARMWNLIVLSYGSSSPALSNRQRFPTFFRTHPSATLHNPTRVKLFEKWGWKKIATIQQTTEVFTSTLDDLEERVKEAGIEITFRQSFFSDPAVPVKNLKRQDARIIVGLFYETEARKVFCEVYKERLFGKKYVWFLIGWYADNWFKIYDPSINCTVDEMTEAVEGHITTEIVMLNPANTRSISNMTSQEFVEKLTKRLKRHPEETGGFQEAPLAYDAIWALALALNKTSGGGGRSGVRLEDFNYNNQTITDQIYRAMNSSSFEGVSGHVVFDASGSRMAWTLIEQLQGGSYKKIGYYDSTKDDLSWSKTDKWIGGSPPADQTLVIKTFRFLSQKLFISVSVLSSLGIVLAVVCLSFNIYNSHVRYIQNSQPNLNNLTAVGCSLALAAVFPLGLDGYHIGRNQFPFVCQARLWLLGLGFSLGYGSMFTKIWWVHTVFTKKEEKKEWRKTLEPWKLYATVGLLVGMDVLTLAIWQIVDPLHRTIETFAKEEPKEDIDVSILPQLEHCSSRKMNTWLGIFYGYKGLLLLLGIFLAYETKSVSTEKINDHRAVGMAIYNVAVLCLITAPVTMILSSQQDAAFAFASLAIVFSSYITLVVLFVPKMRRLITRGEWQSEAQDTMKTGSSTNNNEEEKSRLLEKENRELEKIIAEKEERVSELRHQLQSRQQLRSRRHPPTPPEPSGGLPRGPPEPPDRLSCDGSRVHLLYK
T1 sequence (O75899 whole entry partner, canonical isoform): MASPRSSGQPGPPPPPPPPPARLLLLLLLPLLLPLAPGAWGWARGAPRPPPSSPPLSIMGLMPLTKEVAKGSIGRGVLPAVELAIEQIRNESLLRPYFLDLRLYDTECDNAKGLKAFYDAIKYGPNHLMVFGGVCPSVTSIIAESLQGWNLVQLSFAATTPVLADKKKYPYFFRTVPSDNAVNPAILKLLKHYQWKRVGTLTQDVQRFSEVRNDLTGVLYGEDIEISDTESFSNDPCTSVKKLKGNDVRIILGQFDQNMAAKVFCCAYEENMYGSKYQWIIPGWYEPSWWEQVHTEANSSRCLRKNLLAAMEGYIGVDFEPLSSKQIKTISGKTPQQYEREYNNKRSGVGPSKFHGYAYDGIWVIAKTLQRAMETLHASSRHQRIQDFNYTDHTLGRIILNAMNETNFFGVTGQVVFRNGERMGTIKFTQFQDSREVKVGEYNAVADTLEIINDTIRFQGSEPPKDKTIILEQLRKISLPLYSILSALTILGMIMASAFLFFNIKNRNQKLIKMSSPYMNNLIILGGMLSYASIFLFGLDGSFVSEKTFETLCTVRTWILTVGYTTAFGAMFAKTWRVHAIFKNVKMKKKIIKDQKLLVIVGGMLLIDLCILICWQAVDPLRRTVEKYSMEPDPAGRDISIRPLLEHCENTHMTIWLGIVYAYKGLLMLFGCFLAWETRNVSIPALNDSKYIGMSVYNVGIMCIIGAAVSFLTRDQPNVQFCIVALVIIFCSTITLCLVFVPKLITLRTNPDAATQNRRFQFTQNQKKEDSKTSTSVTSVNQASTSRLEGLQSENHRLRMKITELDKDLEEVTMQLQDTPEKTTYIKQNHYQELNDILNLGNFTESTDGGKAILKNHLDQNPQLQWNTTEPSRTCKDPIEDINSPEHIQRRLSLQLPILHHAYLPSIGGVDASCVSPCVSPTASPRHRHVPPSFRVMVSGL
T2 sequence (P32239 whole entry): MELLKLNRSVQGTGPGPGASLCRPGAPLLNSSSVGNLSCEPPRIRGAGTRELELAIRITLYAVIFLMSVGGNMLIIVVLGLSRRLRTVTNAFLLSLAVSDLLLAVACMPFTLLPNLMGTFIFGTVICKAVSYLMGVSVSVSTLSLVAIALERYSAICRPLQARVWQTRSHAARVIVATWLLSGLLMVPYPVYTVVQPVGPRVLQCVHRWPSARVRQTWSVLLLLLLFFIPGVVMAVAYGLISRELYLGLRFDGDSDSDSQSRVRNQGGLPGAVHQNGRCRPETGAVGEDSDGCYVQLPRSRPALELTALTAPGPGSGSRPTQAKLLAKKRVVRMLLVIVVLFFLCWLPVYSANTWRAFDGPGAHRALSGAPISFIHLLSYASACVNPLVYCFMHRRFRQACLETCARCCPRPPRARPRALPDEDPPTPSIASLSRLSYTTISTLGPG
T12 sequence (P32238 whole entry): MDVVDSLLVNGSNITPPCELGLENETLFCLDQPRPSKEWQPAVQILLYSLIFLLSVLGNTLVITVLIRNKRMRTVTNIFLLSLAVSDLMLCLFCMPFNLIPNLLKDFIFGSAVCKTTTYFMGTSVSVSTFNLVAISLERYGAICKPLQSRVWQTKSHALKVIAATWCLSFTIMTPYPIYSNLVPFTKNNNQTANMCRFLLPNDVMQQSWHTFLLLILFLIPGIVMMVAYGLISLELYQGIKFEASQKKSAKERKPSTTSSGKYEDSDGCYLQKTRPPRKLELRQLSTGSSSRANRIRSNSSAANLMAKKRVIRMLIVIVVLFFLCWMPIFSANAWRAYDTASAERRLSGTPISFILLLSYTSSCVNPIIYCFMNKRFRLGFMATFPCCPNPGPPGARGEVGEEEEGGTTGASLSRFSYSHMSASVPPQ
T19 sequence (P29274 whole entry): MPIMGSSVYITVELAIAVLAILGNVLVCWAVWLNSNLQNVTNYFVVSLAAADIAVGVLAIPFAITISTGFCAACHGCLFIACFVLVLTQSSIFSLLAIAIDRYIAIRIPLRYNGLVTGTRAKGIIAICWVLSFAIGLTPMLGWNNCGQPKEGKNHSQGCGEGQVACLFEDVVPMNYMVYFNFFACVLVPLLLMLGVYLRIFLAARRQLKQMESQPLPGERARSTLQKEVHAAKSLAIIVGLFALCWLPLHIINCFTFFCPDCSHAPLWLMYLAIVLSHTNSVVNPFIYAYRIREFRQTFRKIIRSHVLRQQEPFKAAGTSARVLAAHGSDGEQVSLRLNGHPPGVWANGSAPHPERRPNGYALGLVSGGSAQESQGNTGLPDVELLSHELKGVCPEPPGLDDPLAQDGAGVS
T5 sequence (P35367 whole entry): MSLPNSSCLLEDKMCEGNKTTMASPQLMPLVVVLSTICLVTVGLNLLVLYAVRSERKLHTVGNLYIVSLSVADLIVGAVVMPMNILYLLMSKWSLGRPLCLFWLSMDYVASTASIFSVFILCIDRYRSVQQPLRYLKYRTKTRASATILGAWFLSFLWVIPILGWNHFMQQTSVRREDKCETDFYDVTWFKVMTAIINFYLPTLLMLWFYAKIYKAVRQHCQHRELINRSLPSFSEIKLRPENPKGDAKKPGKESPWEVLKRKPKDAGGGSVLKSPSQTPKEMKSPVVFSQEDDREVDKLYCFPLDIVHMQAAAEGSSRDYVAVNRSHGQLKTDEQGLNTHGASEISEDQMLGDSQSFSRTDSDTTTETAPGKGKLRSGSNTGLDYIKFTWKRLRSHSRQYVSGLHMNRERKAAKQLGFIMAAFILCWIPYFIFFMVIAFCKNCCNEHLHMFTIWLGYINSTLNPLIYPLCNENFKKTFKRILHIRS

SMILES: C[C@]1(Nc2cnc(C(F)(F)F)cn2)CCC[C@@H]1NC(=O)c1ncccc1-n1nccn1 [CVN45502]
- inhibition at 10 µM (GABAB1B): -1%
- inhibition at 10 µM (Cholecystokinin CCK2): 5%
- inhibition at 10 µM (Adenosine A1): 7%
- inhibition at 10 µM (Dopamine D1): 2%
- inhibition at 10 µM (Histamine H1): 2%
- inhibition at 10 µM (APJ): -4%
- inhibition at 10 µM [1]: 4%
- inhibition at 10 µM (Opiate δ1 (OP1, DOP)): -4%
- inhibition at 10 µM (Dopamine D3): -2%
- inhibition at 10 µM (Estrogen ERβ): 4%
- inhibition at 10 µM (Cannabinoid CB1): 8%
- inhibition at 10 µM (Cholecystokinin CCK1): -18%
- inhibition at 10 µM (Angiotensin AT1): -1%
- inhibition at 10 µM (Adrenergic β3): 0%
- inhibition at 10 µM (AdenosineA2B): -7%
- inhibition at 10 µM (Tachykinin NK3): 27%
- inhibition at 10 µM (Vasopressin V2): -4%
- inhibition at 10 µM (Muscarinic M4): 10%
- inhibition at 10 µM (Adenosine A2A): 2%
- inhibition at 10 µM [2]: 7%
- inhibition at 10 µM (Histamine H3): -4%
- inhibition at 10 µM (Progesterone PR-B): 21%
- inhibition at 10 µM [3]: -9%
- inhibition at 10 µM (Dopamine D2L): 7%
- inhibition at 10 µM (Muscarinic M1): -1%
